In patent US20120252852A1 (SANOFI, priority 2011, published 2012):

Tests used:
[1] = humans; cited from earlier work
[2] = Level of impurities in dependency on citric acid (22.8 mmol/L) and storage time (1 mg/mL, autoclaved once, 40° C. and 75% RH, HPLC); format: physicochemical
Method: The prepared vials were autoclaved once and were stored at 40° C. and 75% RH (relative humidity).

[3] = Level of impurities in dependency on pH and repeated autoclaving (1 mg/mL Otamixaban, citrate composition of Example 5, HPLC); format: physicochemical
Method: The appropriate pH value was adjusted by using sodium hydroxide solution (1 M sodium hydroxide) or diluted hydrochloric acid (1 M hydrochloric acid). […] [table] […] The mobile phase was filtered through a 1.5 μm filter. Typically, add 500 mL of mobile phase A to 500 mL of acetonitrile. Mix and degas. [table] [table]

[4] = Level of impurities in dependency on pH and storage time (1 mg/mL, autoclaved one time, stored at 40° C. and 75% RH, HPLC); format: physicochemical; conditions: for Increase of Formula II (carbamimidoyl-benzyl butyric acid): pH 2.5
Method: The appropriate pH value was adjusted by using sodium hydroxide solution (1 M sodium hydroxide) or diluted hydrochloric acid (1 M hydrochloric acid). The prepared vials were autoclaved one time and were stored at 40° C. and 75% RH (relative humidity).

[5] = repeated autoclaving, pH 2.5 to 4.7

Total impurities ([2]; pH 3.0/3.1 (start/1 month), 1 month): 1.33% | Total impurities ([2]; pH 3.0/3.1 (start/1 month), start): 0.87% | Total impurities ([2]; pH 3.6/3.6 (start/1 month), 1 month): 1.06% | Total impurities ([2]; pH 3.6/3.6 (start/1 month), start): 0.83% | Total impurities ([2]; pH 4.0/4.1 (start/1 month), 1 month): 1.17% | Total impurities ([2]; pH 4.0/4.1 (start/1 month), start): 0.98% | Total impurities ([2]; pH 4.6/4.6 (start/1 month), 1 month): 1.75% | Total impurities ([2]; pH 4.6/4.6 (start/1 month), start): 1.51% | Total impurities ([2]; pH 5.1/5.1 (start/1 month), 1 month): 3.80% | Total impurities ([2]; pH 5.1/5.1 (start/1 month), start): 3.57% | Total impurities ([2]; pH 6.1/6.1 (start/1 month), 1 month): 28.16% | Total impurities ([2]; pH 6.1/6.1 (start/1 month), start): 27.12% | Increase of Formula III (carbamoyl-benzyl butyric acid methyl ester) ([3]; pH 2.5, 0 autoclaving): 0.39% | Increase of Formula III (carbamoyl-benzyl butyric acid methyl ester) ([3]; pH 2.5, 1 autoclaving): 0.71% | Increase of Formula III (carbamoyl-benzyl butyric acid methyl ester) ([3]; pH 2.5, 2 autoclaving): 1.02% | Increase of Formula III (carbamoyl-benzyl butyric acid methyl ester) ([3]; pH 2.5, 3 autoclaving): 1.32% | Increase of Formula III (carbamoyl-benzyl butyric acid methyl ester) ([3]; pH 3.0, 0 autoclaving): 0.39% | Increase of Formula III (carbamoyl-benzyl butyric acid methyl ester) ([3]; pH 3.0, 1 autoclaving): 0.74% | Increase of Formula III (carbamoyl-benzyl butyric acid methyl ester) ([3]; pH 3.0, 2 autoclaving): 1.09% | Increase of Formula III (carbamoyl-benzyl butyric acid methyl ester) ([3]; pH 3.0, 3 autoclaving): 1.43% | Increase of Formula III (carbamoyl-benzyl butyric acid methyl ester) ([3]; pH 3.2, 0 autoclaving): 0.39% | Increase of Formula III (carbamoyl-benzyl butyric acid methyl ester) ([3]; pH 3.2, 1 autoclaving): 0.76% | Increase of Formula III (carbamoyl-benzyl butyric acid methyl ester) ([3]; pH 3.2, 2 autoclaving): 1.13% | Increase of Formula III (carbamoyl-benzyl butyric acid methyl ester) ([3]; pH 3.2, 3 autoclaving): 1.50% | Increase of Formula III (carbamoyl-benzyl butyric acid methyl ester) ([3]; pH 3.5, 0 autoclaving): 0.39% | Increase of Formula III (carbamoyl-benzyl butyric acid methyl ester) ([3]; pH 3.5, 1 autoclaving): 0.81% | Increase of Formula III (carbamoyl-benzyl butyric acid methyl ester) ([3]; pH 3.5, 2 autoclaving): 1.23% | Increase of Formula III (carbamoyl-benzyl butyric acid methyl ester) ([3]; pH 3.5, 3 autoclaving): 1.65% | Increase of Formula III (carbamoyl-benzyl butyric acid methyl ester) ([3]; pH 3.7 (first row), 0 autoclaving): 0.39% | Increase of Formula III (carbamoyl-benzyl butyric acid methyl ester) ([3]; pH 3.7 (first row), 1 autoclaving): 0.87% | Increase of Formula III (carbamoyl-benzyl butyric acid methyl ester) ([3]; pH 3.7 (first row), 2 autoclaving): 1.33% | Increase of Formula III (carbamoyl-benzyl butyric acid methyl ester) ([3]; pH 3.7 (first row), 3 autoclaving): 1.80% | Increase of Formula III (carbamoyl-benzyl butyric acid methyl ester) ([3]; pH 3.7 (second row), 0 autoclaving): 0.39% | Increase of Formula III (carbamoyl-benzyl butyric acid methyl ester) ([3]; pH 3.7 (second row), 1 autoclaving): 0.84% | Increase of Formula III (carbamoyl-benzyl butyric acid methyl ester) ([3]; pH 3.7 (second row), 2 autoclaving): 1.28% | Increase of Formula III (carbamoyl-benzyl butyric acid methyl ester) ([3]; pH 3.7 (second row), 3 autoclaving): 1.71% | Increase of Formula III (carbamoyl-benzyl butyric acid methyl ester) ([3]; pH 4.0, 0 autoclaving): 0.39% | Increase of Formula III (carbamoyl-benzyl butyric acid methyl ester) ([3]; pH 4.0, 1 autoclaving): 0.95% | Increase of Formula III (carbamoyl-benzyl butyric acid methyl ester) ([3]; pH 4.0, 2 autoclaving): 1.48% | Increase of Formula III (carbamoyl-benzyl butyric acid methyl ester) ([3]; pH 4.0, 3 autoclaving): 2.02% | Increase of Formula III (carbamoyl-benzyl butyric acid methyl ester) ([3]; pH 4.2, 0 autoclaving): 0.39% | Increase of Formula III (carbamoyl-benzyl butyric acid methyl ester) ([3]; pH 4.2, 1 autoclaving): 1.08% | Increase of Formula III (carbamoyl-benzyl butyric acid methyl ester) ([3]; pH 4.2, 2 autoclaving): 1.75% | Increase of Formula III (carbamoyl-benzyl butyric acid methyl ester) ([3]; pH 4.2, 3 autoclaving): 2.42% | Increase of Formula III (carbamoyl-benzyl butyric acid methyl ester) ([3]; pH 4.5, 0 autoclaving): 0.39% | Increase of Formula III (carbamoyl-benzyl butyric acid methyl ester) ([3]; pH 4.5, 1 autoclaving): 1.40% | Increase of Formula III (carbamoyl-benzyl butyric acid methyl ester) ([3]; pH 4.5, 2 autoclaving): 2.37% | Increase of Formula III (carbamoyl-benzyl butyric acid methyl ester) ([3]; pH 4.5, 3 autoclaving): 3.36% | Increase of Formula III (carbamoyl-benzyl butyric acid methyl ester) ([3]; pH 4.7, 0 autoclaving): 0.39% | Increase of Formula III (carbamoyl-benzyl butyric acid methyl ester) ([3]; pH 4.7, 1 autoclaving): 1.84% | Increase of Formula III (carbamoyl-benzyl butyric acid methyl ester) ([3]; pH 4.7, 2 autoclaving): 3.20% | Increase of Formula III (carbamoyl-benzyl butyric acid methyl ester) ([3]; pH 4.7, 3 autoclaving): 4.58% | Levels of Formula II (carbamimidoyl acid) versus pH [3, 5]: minimum at pH 4 | Levels of Formula III (carbamoyl methyl ester) versus pH [3, 5]: lowest at the lowest pH | Level of Formula II versus pH over storage time ([4]; 40° C. and 75% RH): increased faster with lower pH | Levels of Formula III versus pH over storage time ([4]; 40° C. and 75% RH): parallel at different pH values | Increase of Formula II (carbamimidoyl-benzyl butyric acid) ([4]; storage 0 months): 0.33% | Increase of Formula II (carbamimidoyl-benzyl butyric acid) ([4]; storage 1 month): 1.47% | Increase of Formula II (carbamimidoyl-benzyl butyric acid) ([4]; storage 3 months): 3.73%
Structure (SMILES): COC(=O)[C@H](Cc1cccc(C(=N)N)c1)[C@@H](C)NC(=O)c1ccc(-c2cc[n+]([O-])cc2)cc1 (mixture of isomers) [Otamixaban, Methyl (2R,3R)-2-{3-[amino(imino)methyl]benzyl}-3-{[4-(1-oxidopyridin-4-yl)benzoyl]amino}butanoate]
Clinical efficacy, safety and tolerability [1]: efficacious, safe and well tolerated
